Test system: RSV (Long)
Test: RSV cytopathic effect (CPE)-based viral replication assay
Assay type: cell-based, respiratory syncytial virus (RSV)
Settings: HEp-2 cells infected with RSV Long at MOI 0.015; 3 days at 37° C.; cell viability by CellTiter-Glo luminescence; read-out: EC50 (nm)
Summary of the method: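 HEp-2 cells, 2,500 per well in DMEM with 2% heat-inactivated FBS, treated with 10-point compound dilutions and infected with RSV Long at MOI 0.015. After 3 days at 37 °C, 5% CO2, viability read by CellTiter-Glo luminescence; EC50 derived from CPE data.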

EC50	Structure (SMILES)
80 nM	O=C1CC(c2c(Cn3c(=O)n(C4CC4)c4ccncc43)ncc3ccccc23)CN1 (stereo not drawn) [Example 2020]
5.8 nM	CS(=O)(=O)N1CCC2(CC1)C(=O)N(Cc1ncc3ccccc3c1C1CNC(=O)C1)c1cnccc12 (stereo not drawn) [Example 2041]

Same assay, conditions: human respiratory syncytial virus, HEp-2, 72 h, HEp-2 cells infected with RSV Long at MOI 0.015; 3 days at 37° C.; cell viability by CellTiter-Glo luminescence; read-out: EC50 (nm)

Structure (SMILES)	EC50
NC1(C(=O)N2CCC3(CC2)C(=O)N(Cc2ncc4ccccc4c2-c2ccc(S(N)(=O)=O)cc2)c2cnccc23)CC1 [Example 2015]	3.9 nM
COC(=O)N1CC2(C1)C(=O)N(Cc1ncc3ccccc3c1-c1cncs1)c1ccccc12 [Example 100, Methyl 2′-oxo-1′-((4-(thiazol-5-yl)isoquinolin-3-yl)methyl)spiro[azetidine-3,3′-indoline]-1-carboxylate]	0.4 nM
NC1(C(=O)N2CCC3(CC2)C(=O)N(Cc2ncc4ccccc4c2-c2cc[nH]c2)c2cnccc23)CC1 [Example 2031]	120 nM
COC(=O)N1CCC(n2c(=O)n(Cc3ncc4ccccc4c3CCCCO)c3cncc(Cl)c32)CC1 [Example 15, Methyl 4-(7-chloro-3-((4-(4-hydroxybutyl)isoquinolin-3-yl)methyl)-2-oxo-2,3-dihydro-1H-imidazo[4,5-c]pyridin-1-yl)piperidine-1-carboxylate]	2.2 nM
COC(=O)N1CC2(C1)C(=O)N(Cc1ncc3ccccc3c1-c1ccc(F)nc1F)c1ccccc12 [Example 96, Methyl 1′-((4-(2,6-difluoropyridin-3-yl)isoquinolin-3-yl)methyl)-2′-oxospiro[azetidine-3,3′-indoline]-1-carboxylate]	2.2 nM
COC(=O)N1CC2(C1)C(=O)N(Cc1ncc3cc(C#N)c(F)cc3c1-c1cccnc1)c1ccccc12 [Example 2039]	46 nM
CS(=O)(=O)N1CC2(C1)C(=O)N(Cc1ncc3ccccc3c1-c1cc(F)cc(F)c1)c1ccccc12 [Example 72]	5.6 nM
CC1(S(=O)(=O)N2CCC3(CC2)C(=O)N(Cc2ncc4ccccc4c2CCCCO)c2cnccc23)CC1 [Example 54, 1′-((4-(4-hydroxybutyl)isoquinolin-3-yl)methyl)-1-((1-methylcyclopropyl)sulfonyl)spiro[piperidine-4,3′-pyrrolo[2,3-c]pyridin]-2′(1′H)-one]	6 nM
O=C1N(Cc2ncc3ccccc3c2CCCCO)c2cnccc2C12CC2 [Example 49, 1′-((4-(4-hydroxybutyl)isoquinolin-3-yl)methyl)spiro[cyclopropane-1,3′-pyrrolo[2,3-c]pyridin]-2′(1′H)-one]	18 nM
O=C1N(Cc2ncc3ccccc3c2-c2ccc(F)nc2)c2ccccc2C12CN(CCF)C2 [Example 86, 1-(2-fluoroethyl)-1′-((4-(6-fluoropyridin-3-yl)isoquinolin-3-yl)methyl)spiro[azetidine-3,3′-indolin]-2′-one]	20 nM
CN(C)C1(C(=O)N2CC3(C2)C(=O)N(Cc2ncc4ccccc4c2-c2ccc(C#N)nc2)c2ccccc23)CC1 [Example 62, 5-(3-((1-(1-(dimethylamino)cyclopropanecarbonyl)-2′-oxospiro[azetidine-3,3′-indolin]-1′-yl)methyl)isoquinolin-4-yl)picolinonitrile]	10 nM
CS(=O)(=O)N1CC2(C1)C(=O)N(Cc1ncc3ccccc3c1-c1ccc(F)cc1)c1ccccc12 [Example 74]	5.8 nM
O=c1n(Cc2ncc3c(F)cccc3c2CCCCO)c2cnccc2n1C1CC1 [Example 29, 1-Cyclopropyl-3-((8-fluoro-4-(4-hydroxybutyl)isoquinolin-3-yl)methyl)-1H-imidazo[4,5-c]pyridin-2(3H)-one]	160 nM
COC(=O)N1CC2(C1)C(=O)N(Cc1ncc3ccccc3c1-c1cnccn1)c1ccccc12 [Example 103, Methyl 2′-oxo-1′-((4-(pyrazin-2-yl)isoquinolin-3-yl)methyl)spiro[azetidine-3,3′-indoline]-1-carboxylate]	18 nM
COC(=O)N1CCC2(CC1)C(=O)N(Cc1ncc3cc(Cl)ccc3c1-c1cccnc1)c1cnccc12 [Example 164, Methyl 1′-((7-chloro-4-(pyridin-3-yl)isoquinolin-3-yl)methyl)-2′-oxo-1′,2′-dihydrospiro[piperidine-4,3′-pyrrolo[2,3-c]pyridine]-1-carboxylate]	1.6 nM
NC(C(=O)N1CCC2(CC1)C(=O)N(Cc1ncc3ccccc3c1-c1cncs1)c1cnccc12)C(F)(F)F (stereo not drawn) [Example 2040]	1.9 nM
CC1(S(=O)(=O)N2CC3(C2)C(=O)N(Cc2ncc4ccccc4c2-c2ccc(C#N)nc2)c2ccccc23)CC1 [Example 61]	4.4 nM
CS(=O)(=O)N1CC2(C1)C(=O)N(Cc1ncc3ccccc3c1-c1ccc(C#N)nc1)c1ccccc12 [Example 45]	3 nM
NC1(CC(=O)N2CCC3(CC2)C(=O)N(Cc2ncc4ccccc4c2-c2cccnc2)c2cnccc23)CC1 [Example 145, 1-(2-(1-Aminocyclopropyl)acetyl)-1′-((4-(pyridin-3-yl)isoquinolin-3-yl)methyl)spiro[piperidine-4,3′-pyrrolo[2,3-c]pyridin]-2′(1′H)-one]	8.1 nM
O=C1N(Cc2ncc3ccccc3c2-c2cccnc2)c2cnccc2C12CCN(S(=O)(=O)CC(F)(F)F)CC2 [Example 139, 1′-((4-(pyridin-3-yl)isoquinolin-3-yl)methyl)-1-((2,2,2-trifluoroethyl)sulfonyl)spiro[piperidine-4,3′-pyrrolo[2,3-c]pyridin]-2′(1′H)-one]	7.2 nM
CC1(n2c(=O)n(Cc3ncc4ccccc4c3-c3ccc(C4(N)CC4)nc3)c3cnccc32)CC1 [Example 2001]	9.5 nM
CC(C)(C)NC(=O)N1CC2(C1)C(=O)N(Cc1ncc3ccccc3c1CCCCO)c1ccccc12 [Example 56, N-(tert-butyl)-1′-((4-(4-hydroxybutyl)isoquinolin-3-yl)methyl)-2′-oxospiro[azetidine-3,3′-indoline]-1-carboxamide]	1.3 nM
COC(=O)N1CC2(C1)C(=O)N(Cc1ncc3ccccc3c1-c1ccc(NS(C)(=O)=O)cc1)c1ccccc12 [Example 105, methyl 1′-((4-(4-(methylsulfonamido)phenyl)isoquinolin-3-yl)methyl)-2′-oxospiro[azetidine-3,3′-indoline]-1-carboxylate]	0.85 nM

Next, values leading:

EC50	Structure (SMILES)
17 nM	COC(=O)c1ccc(-c2c(CN3C(=O)C4(CCN(C(=O)C5(N)CC5)CC4)c4ccncc43)ncc3ccccc23)cn1 [Example 50c, Methyl 5-(3-((1-(1-aminocyclopropanecarbonyl)-2′-oxospiro[piperidine-4,3′-pyrrolo[2,3-c]pyridin]-1′(2′H)-yl)methyl)isoquinolin-4-yl)picolinate]
3.4 nM	CS(=O)(=O)N1CCC(n2c(=O)n(Cc3ncc4ccccc4c3CCCCO)c3cnccc32)CC1 [Example 18c, 3-((4-(4-hydroxybutyl)isoquinolin-3-yl)methyl)-1-(1-(methylsulfonyl)piperidin-4-yl)-1H-imidazo[4,5-c]pyridin-2(3H)-one]
19 nM	CS(=O)(=O)c1ccc(-c2c(Cn3c(=O)n(C4CC4)c4ccncc43)ncc3ccccc23)cn1 [Example 70c, 1-Cyclopropyl-3-((4-(6-(methylsulfonyl)pyridin-3-yl)isoquinolin-3-yl)methyl)-1H-imidazo[4,5-c]pyridin-2(3H)-one]
3 nM	CS(=O)(=O)N1CCC2(CC1)C(=O)N(Cc1ncc3ccccc3c1-c1ccc(C(N)C(F)(F)F)nc1)c1cnccc12 (stereo not drawn) [Example 158c, 1′-((4-(6-(1-amino-2,2,2-trifluoroethyl)pyridin-3-yl)isoquinolin-3-yl)methyl)-1-(methylsulfonyl)spiro[piperidine-4,3′-pyrrolo[2,3-c]pyridin]-2′(1′H)-one]
1.3 nM	NC(=O)N1CC2(C1)C(=O)N(Cc1ncc3ccccc3c1-c1ccc(S(N)(=O)=O)cc1)c1ccccc12 [Example 116b, 2′-oxo-1′-((4-(4-sulfamoylphenyl)isoquinolin-3-yl)methyl)spiro[azetidine-3,3′-indoline]-1-carboxamide]
0.4 nM	CC1(OC(=O)N2CC3(C2)C(=O)N(Cc2ncc4ccccc4c2-c2ccc(C#N)nc2)c2ccccc23)CC1 [Example 91b, 1-Methylcyclopropyl 1′-((4-(6-cyanopyridin-3-yl)isoquinolin-3-yl)methyl)-2′-oxospiro[azetidine-3,3′-indoline]-1-carboxylate]
5800 nM	N[C@@H]1CCN(c2ccc3c(CCCCO)c(Cn4c(=O)n(C5CC5)c5ccncc54)ncc3c2)C1 [Example 32c, (R)-3-((7-(3-aminopyrrolidin-1-yl)-4-(4-hydroxybutyl)isoquinolin-3-yl)methyl)-1-cyclopropyl-1H-imidazo[4,5-c]pyridin-2(3H)-one]
8600 nM	NC1(c2ccc3c(CCCCO)c(Cn4c(=O)n(C5CC5)c5ccncc54)ncc3c2)COC1 [Example 46g, 3-((7-(3-Aminooxetan-3-yl)-4-(4-hydroxybutyl)isoquinolin-3-yl)methyl)-1-cyclopropyl-1H-imidazo[4,5-c]pyridin-2(3H)-one]
0.86 nM	CS(=O)(=O)N1CCC2(CC1)C(=O)N(Cc1ncc3ccccc3c1-c1ccc(F)nc1)c1cnccc12 [Example 110b, 1′-((4-(6-fluoropyridin-3-yl)isoquinolin-3-yl)methyl)-1-(methylsulfonyl)spiro[piperidine-4,3′-pyrrolo[2,3-c]pyridin]-2′(1′H)-one]

Same assay, conditions: human respiratory syncytial virus, HEp-2, 72 h, read-out: EC50 (nm)

Structure (SMILES)	EC50
CNC(=O)OC1CC2(C1)C(=O)N(Cc1ncc3ccccc3c1-c1ccc(C#N)nc1)c1ccccc12 (stereo not drawn) [Example 89, 1′-((4-(6-Cyanopyridin-3-yl)isoquinolin-3-yl)methyl)-2′-oxospiro[cyclobutane-1,3′-indolin]-3-yl methylcarbamate]	5.8 nM
COC(=O)N1CCC2(CC1)C(=O)N(Cc1ncc3ccccc3c1-c1cccnc1)c1cnccc12 [Example 144, Methyl 2′-oxo-1′-((4-(pyridin-3-yl)isoquinolin-3-yl)methyl)-1′,2′-dihydrospiro[piperidine-4,3′-pyrrolo[2,3-c]pyridine]-1-carboxylate]	1.1 nM

Reference: patent US20190002436A1, “RESPIRATORY SYNCYTIAL VIRUS INHIBITORS” (MEDIVIR AB, priority 2015, published 2019)
